Calls of active or inactive are those of the source. The rule behind the calls is not given here.
Key:
[1] = Apparent permeability across basolateral to apical side in human Caco2 cells at 10 uM after 1.5 hrs by LC-MS/MS analysis; type: ADME, cell-based; conditions: Caco-2
L02 [2] = test: Cytoprotection against APAP induced cytotoxicity in human LO2 cells assessed as decrease in MDA level at 100 mmol after 15 mins by lipid oxidation assay; type: functional, cell-based
[3] = Oral bioavailability in human; type: ADME, organism-based; conditions: in vivo
[4] = Terminal half life in iv dosed human plasma; type: ADME, organism-based; conditions: read-out: beta t1/2 (converted)
[5] = Drug excretion in iv dosed human; type: ADME, organism-based; conditions: in vivo, read-out: Drug excretion
[6] = Apparent permeability across apical to basolateral side in human Caco2 cells at 10 uM after 1.5 hrs by LC-MS/MS analysis; type: ADME, cell-based; conditions: Caco-2
L02 [7] = test: Cytoprotection against H2O2 induced cytotoxicity in human LO2 cells assessed as decrease in MDA level at 100 mmol after 15 mins by lipid oxidation assay; type: functional, cell-based
L02 [8] = test: Cytotoxicity against human LO2 cells assessed as reduction in cell viability after 24 hrs by CCK-8 assay; type: cell-based; conditions: l02, 24 h
L02 [9] = test: Cytoprotection against H2O2 induced cytotoxicity in human LO2 cells assessed as increase in cell viability preincubated for 24 hrs followed by H2O2 addition measured after 6 hrs by CCK-8 assay; type: functional, cell-based
[10] = Cmax in Sprague-Dawley rat at 10 mg/kg, iv or 20 mg/kg, po by LC-MS/MS analysis; type: ADME, organism-based; conditions: in vivo
[11] = Terminal half life in Sprague-Dawley rat at 20 mg/kg, po by LC-MS/MS analysis; type: ADME, organism-based; conditions: in vivo, read-out: beta t1/2 (converted)
L02 [12] = test: Cytoprotection against APAP induced cytotoxicity in human LO2 cells assessed as increase in cell viability preincubated for 24 hrs followed by […] hrs by CCK-8 assay; type: functional, cell-based
[13] = Efflux ratio of apparent permeability across basolateral to apical side over apical to basolateral side in human Caco2 cells at 10 uM after 1.5 hrs by LC-MS/MS analysis; type: ADME, cell-based; conditions: Caco-2
[14] = AUC in Sprague-Dawley rat at 10 mg/kg, iv or 20 mg/kg, po by LC-MS/MS analysis; type: ADME, organism-based; conditions: in vivo
[15] = Oral bioavailability in Sprague-Dawley rat at 20 mg/kg by LC-MS/MS analysis; type: ADME, organism-based; conditions: in vivo

Row | SMILES | Activity (L02 [7]) | Activity (L02 [9]) | also measured
1 | CC(=O)N[C@@H](CS)C(=O)O [ACETYLCYSTEINE] | Active |  | Papp B→A at 1.5 h, 10 µM [1]: < 0.61 ×10⁻⁶ cm/s; Activity (L02 [2]): Active; bioavailability [3]: < 5%; half-life [4]: 5.6 h; dose excreted [5]: 30%; Papp A→B at 1.5 h, 10 µM [6]: < 1.09 ×10⁻⁶ cm/s
2 | CCC(=O)N[C@@H](CSC)C(=O)OC(C)(C)C |  | inactive | Activity (L02 [8]): Toxic
3 | CSC[C@H](NC(C)=O)C(=O)NC1CCCCC1 | Active | Active | Papp B→A at 1.5 h, 10 µM [1]: 21.8 ×10⁻⁶ cm/s; Cmax [10]: 2140 ng/mL; Activity (L02 [2]): Active; half-life [11]: 5.62 h; Activity (L02 [12]): Active; efflux ratio at 1.5 h, 10 µM [13]: 1.11; AUC [14]: 3080 ng·h/mL; Papp A→B at 1.5 h, 10 µM [6]: 19.7 ×10⁻⁶ cm/s; bioavailability [15]: 52.8%
4 | CSC[C@H](NC(=O)c1ccccc1)C(=O)Nc1ccccc1 |  | Active | 
5 | CSC[C@H](NC(=O)C1CCCCC1)C(=O)OC(C)(C)C |  | inactive | Activity (L02 [8]): Toxic
6 | COC(=O)[C@H](CSC)NC(=O)c1ccccc1 |  | inactive | 
7 | CCC(=O)N[C@@H](CSC)C(=O)NC1CCCCC1 | Active | Active | Activity (L02 [2]): Active; Activity (L02 [12]): Active
8 | CCC(=O)N[C@@H](CSC)C(=O)OC |  | inactive | 
9 | CSC[C@H](NC(C)=O)C(=O)OC(C)(C)C |  | inactive | Activity (L02 [8]): Toxic
10 | CCC(=O)N[C@@H](CSC)C(=O)Nc1ccccc1 |  | Active | 
11 | CNC(=O)[C@H](CSC)NC(=O)c1ccccc1 | inactive | Active | 
12 | CSC[C@H](NC(C)=O)C(=O)O | Active | Active | 
13 | COC(=O)[C@H](CSC)NC(C)=O |  | inactive | 
14 | CSC[C@H](NC(=O)c1ccc(F)cc1)C(=O)O | Active | Active | 
15 | CSC[C@H](NC(=O)c1ccccc1)C(=O)OC(C)(C)C |  | inactive | Activity (L02 [8]): Toxic
16 | CCC(=O)N[C@@H](CSC)C(=O)NC |  | Active | 
17 | CSC[C@H](NC(=O)c1ccccc1)C(=O)NC1CCCCC1 |  | Active | 
18 | CSC[C@H](NC(C)=O)C(=O)Nc1ccccc1 | Active | Active | Activity (L02 [2]): Active; Activity (L02 [12]): inactive
19 | COC(=O)[C@H](CSC)NC(=O)C1CCCCC1 |  | inactive | 
20 | CSC[C@H](NC(=O)c1ccccc1)C(=O)O | Active | Active | 
21 | CCC(=O)N[C@@H](CSC)C(=O)O | Active | Active | 
22 | CSC[C@H](NC(=O)c1ccc(F)cc1)C(=O)OC(C)(C)C |  | inactive | Activity (L02 [8]): Toxic
23 | CSC[C@H](NC(=O)C1CCCCC1)C(=O)O | Active | Active | 
24 | COC(=O)[C@H](CSC)NC(=O)c1ccc(F)cc1 |  | inactive | 
25 | CNC(=O)[C@H](CSC)NC(=O)C1CCCCC1 | Active | Active | 
